Our source for the IC50 values is patent US11932630B2, “Heteroaryl aminopropanol derivatives” (NOVARTIS AG, priority 2021, dated 2024).

One test addresses T1, human LTA4H (Homo sapiens, UniProt P09960).
T1 sequence (P09960 1-611): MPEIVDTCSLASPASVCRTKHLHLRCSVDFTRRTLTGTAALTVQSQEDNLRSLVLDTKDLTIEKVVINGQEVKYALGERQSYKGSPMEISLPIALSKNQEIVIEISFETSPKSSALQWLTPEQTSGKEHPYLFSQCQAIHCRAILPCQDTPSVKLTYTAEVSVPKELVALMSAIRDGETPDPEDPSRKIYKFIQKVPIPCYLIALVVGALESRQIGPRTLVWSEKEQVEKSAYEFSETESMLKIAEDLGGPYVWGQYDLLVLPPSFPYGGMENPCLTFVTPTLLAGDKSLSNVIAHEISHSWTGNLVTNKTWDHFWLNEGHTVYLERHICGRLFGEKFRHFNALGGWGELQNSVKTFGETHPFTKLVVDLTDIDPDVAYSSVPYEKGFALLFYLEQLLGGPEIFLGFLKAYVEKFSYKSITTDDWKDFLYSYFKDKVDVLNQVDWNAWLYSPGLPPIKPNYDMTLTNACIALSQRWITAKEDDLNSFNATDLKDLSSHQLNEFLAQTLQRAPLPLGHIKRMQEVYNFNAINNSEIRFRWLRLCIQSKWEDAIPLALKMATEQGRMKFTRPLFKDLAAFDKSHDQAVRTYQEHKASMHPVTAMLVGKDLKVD
Kind of test: Human LTA4H enzyme assay (Arg-AMC substrate). The settings on record: Arg-AMC 600 μM, 9 nM human LTA4H, 15 min pre-incubation; mean values of at least 3 measurements; read-out: ArgAMC IC50. Type of test: biochemical. The method, then:
a) Human LTA4H Enzyme Assay:
[…] (LTA4H) catalyzes the vinylogous hydrolysis of the epoxide, leukotriene A4 (LTA4) into the pro-inflammatory mediator LTB4.
For compound testing, compounds are delivered as 10 mM stock solutions in 90% DMSO (10% water) in matrix tubes. […] A final substrate concentration of 600 μM, which is around the KM value of Arg-AMC, at a final enzyme concentration of 9 nM is chosen. Upon addition of the substrate, the plate is immediately placed in a fluorescence reader and the fluorescence is measured every 10 minutes for 60 minutes using the filter setting λ excitation=380 nm and A emission=460 nm. […] Raw data is converted to rate (moles per minute) using the AMC calibration curve calculated from the AMC standards. The data is analyzed in GraphPad Prism (GraphPad software Inc.) using non-linear regression to determine IC50 values of LTA4H inhibitors.

The subject of test [1] is LTB4 biosynthesis in human whole blood. The experiment in a line: Human whole blood assay (hWB), inhibition of LTB4 biosynthesis. The test is classed as cell-based. The settings on record: human blood diluted 1:3, 4 hours with compound, 10 μg/ml A23187 for 15 min, eicosanoid by ELISA; read-out: hWB IC50. As to the method: b) Human Whole Blood Assay:
Compounds are tested in a human whole blood assay (hWB) to test their ability to inhibit LTB4 biosynthesis in a human cellular system. To this end, fresh blood is collected in heparinized vacutainers by venipuncture from volunteers. Blood is diluted 1:3 with RPM (Roswell Park Memorial Institute) medium and aliquots of 200 μL are transferred to 96-well round bottom cell culture plates. For compound testing, compounds are delivered as 10 mM stock solutions in 90% DMSO in matrix tubes. […] 4 μL of compound dilution or vehicle is added to 200 μL of blood and incubated for 4 hours at 37° C. in a humidified incubator. […] Incubation is terminated by centrifugation at 300 g for 10 min at 22° C. Plasma supernatant is taken and transferred to a 96 well plate for eicosanoid determination by ELISA (Assay designs) according to the manufacturer's protocol after 1:20 dilution in assay buffer. The data is analyzed in GraphPad Prism (GraphPad software Inc.) using non-linear regression to determine IC50 values of LTA4H inhibitors.
(In general: ELISA stands for enzyme-linked immunosorbent assay.)

In the case of `CC(O)[C@@H](N)Cc1nc(-c2ccc(Oc3ncc(Br)cc3F)cc2)no1` (mixture of isomers) [Example 18, (3S)-3-amino-4-(3-(4-((5-bromo-3-fluoropyridin-2-yl)oxy)phenyl)-1,2,4-oxadiazol-5-yl)butan-2-ol], the IC50 on human LTA4H came out at 6.1 nM; in test [1], 343 nM.
The corresponding values for `NC(CO)Cc1nnn(-c2ccc(Oc3ncc(Cl)cc3F)cc2)n1` (racemic) [Example 39, 2-Amino-3-(2-(4-((5-chloro-3-fluoropyridin-2-yl)oxy)phenyl)-2H-tetrazol-5-yl)propan-1-ol] are 2.2 nM and 63 nM.
In the case of `N[C@H](CO)Cc1nc(-c2cccc([C@H]3COc4ccccc4O3)c2)no1` [Example 01, (S)-2-amino-3-(3-(3-((S)-2,3-dihydrobenzo[b][1,4]dioxin-2-yl)phenyl)-1,2,4-oxadiazol-5-yl)propan-1-ol], in test [1], the IC50 is 91 nM.
For the molecule `N[C@H](CO)Cc1nc(-c2cccc(Oc3ccc(Cl)cn3)c2)no1` [Example 02, (S)-2-amino-3-(3-(3-((5-chloropyridin-2-yl)oxy)phenyl)-1,2,4-oxadiazol-5-yl)propan-1-ol], the IC50 on human LTA4H turned out to be 2.1 nM; in test [1], 72 nM.
`N[C@H](CO)Cc1nc(-c2cccc(Oc3ccc(OC(F)F)cn3)c2)no1` [Example 03, (S)-2-amino-3-(3-(3-((5-(difluoromethoxy)pyridin-2-yl)oxy)phenyl)-1,2,4-oxadiazol-5-yl)propan-1-ol]: in test [1], the IC50 was 100 nM.
In the case of `N[C@H](CO)Cc1nc(-c2ccc(Oc3ccc(C(F)(F)F)cn3)cc2)no1` [Example 04, (S)-2-amino-3-(3-(4-((5-(trifluoromethyl)pyridin-2-yl)oxy)phenyl)-1,2,4-oxadiazol-5-yl)propan-1-ol], the results for the IC50 (on human LTA4H; in test [1]) were 11.8 nM and 327 nM, respectively.
The matching figures for `N[C@H](CO)Cc1nc(-c2ccc(Oc3ccc(OC(F)F)cn3)cc2)no1` [Example 05, (S)-2-amino-3-(3-(4-((5-(difluoromethoxy)pyridin-2-yl)oxy)phenyl)-1,2,4-oxadiazol-5-yl)propan-1-ol]: 28.3 nM and 1850 nM.
The matching figures for `N[C@H](CO)Cc1noc(-c2ccc(Oc3ccc(Cl)cn3)cc2)n1` [Example 06]: 9.4 nM and 510 nM.
Regarding `N[C@H](CO)Cc1nc(-c2ccc(Oc3ncc(-c4ccn[nH]4)cc3F)cc2)no1` [Example 07], the IC50 in test [1] came out at 117 nM.
Consider `N[C@H](CO)Cc1nc(-c2cccc(Oc3ccc(-c4ccn[nH]4)cn3)c2)no1` [Example 09, (S)-3-(3-(3-((5-(1H-pyrazol-5-yl)pyridin-2-yl)oxy)phenyl)-1,2,4-oxadiazol-5-yl)-2-aminopropan-1-ol], for which the values for the IC50 (on human LTA4H; in test [1]) were 2.5 nM and 74 nM, respectively.
The matching figures for `N[C@H](CO)Cc1nc(-c2cccc(Oc3ccc(C(F)(F)F)cn3)c2)no1` [Example 10, (S)-2-amino-3-(3-(3-((5-(trifluoromethyl)pyridin-2-yl)oxy)phenyl)-1,2,4-oxadiazol-5-yl)propan-1-ol]: 6.3 nM and 141 nM.
With `N[C@H](CO)Cc1nc(-c2cccc([C@@H]3COc4cccnc4O3)c2)no1` [Example 11, (S)-2-amino-3-(3-(3-((R)-2,3-dihydro-[1,4]dioxino[2,3-b]pyridin-3-yl)phenyl)-1,2,4-oxadiazol-5-yl)propan-1-ol], the 50% inhibitory concentration (IC50) in test [1] is 44 nM.
Still for that read-out and setting: with `N[C@H](CO)Cc1nc(-c2ccc(Oc3ccc(-c4ccn[nH]4)cn3)cc2)no1` [Example 13, (S)-3-(3-(4-((5-(1H-Pyrazol-5-yl)pyridin-2-yl)oxy)phenyl)-1,2,4-oxadiazol-5-yl)-2-aminopropan-1-ol] the figure was 51 nM.
On to `N[C@H](CO)Cn1nnc(-c2cccc([C@@H]3COc4cccnc4O3)c2)n1` [Example 14, (S)-2-amino-3-(5-(3-((R)-2,3-dihydro-[1,4]dioxino[2,3-b]pyridin-3-yl)phenyl)-2H-tetrazol-2-yl)propan-1-ol], for which the IC50 was 2.3 nM at human LTA4H and 39 nM in test [1].
Regarding `N[C@H](CO)Cc1nc(-c2cccc([C@@H]3COc4ccccc4O3)c2)no1` [Example 15, (S)-2-amino-3-(3-(3-((R)-2,3-dihydrobenzo[b][1,4]dioxin-2-yl)phenyl)-1,2,4-oxadiazol-5-yl)propan-1-ol], the half-maximal inhibitory concentration (IC50) at human LTA4H was 2.9 nM; in test [1], 79 nM.
The corresponding values for `N[C@H](CO)Cc1nc(-c2ccc(Oc3ccc(Cl)cn3)cc2)no1` [Example 16, (S)-2-amino-3-(3-(4-((5-chloropyridin-2-yl)oxy)phenyl)-1,2,4-oxadiazol-5-yl)propan-1-ol] are 2.4 nM and 229 nM.
Consider `C[C@H](Cc1ccccc1)Oc1ccc(-c2noc(C[C@H](N)CO)n2)cc1` [Example 17, (S)-2-amino-3-(3-(4-(((R)-1-phenylpropan-2-yl)oxy)phenyl)-1,2,4-oxadiazol-5-yl)propan-1-ol], for which the figures for the IC50 (on human LTA4H; in test [1]) were 16.7 nM and 297 nM, respectively.
The matching figures for `N[C@@H](CO)Cn1nnc(-c2ccc(Oc3ccc(-c4ccn[nH]4)cn3)cc2)n1` [Example 19, (R)-3-(5-(4-((5-(1H-pyrazol-3-yl)pyridin-2-yl)oxy)phenyl)-2H-tetrazol-2-yl)-2-aminopropan-1-ol]: 4.9 nM and 65 nM.
The matching figures for `N[C@H](CO)Cn1nnc(-c2ccc(Oc3ccc(-c4ccn[nH]4)cn3)cc2)n1` [Example 20, (S)-3-(5-(4-((5-(1H-pyrazol-3-yl)pyridin-2-yl)oxy)phenyl)-2H-tetrazol-2-yl)-2-aminopropan-1-ol]: 3.2 nM and 75 nM.
The matching figures for `N[C@H](CO)Cn1ccc(-c2ccc(Oc3ncc(-c4ccn[nH]4)cc3F)cn2)n1` [Example 21, (S)-2-amino-3-(3-(5-((3-fluoro-5-(1H-pyrazol-5-yl)pyridin-2-yl)oxy)pyridin-2-yl)-1H-pyrazol-1-yl)propan-1-ol]: 3.1 nM and 123 nM.
For the molecule `N[C@H](CO)Cn1ccc(-c2cccc(Oc3ncc(Cl)cc3F)c2)n1` [Example 24, (S)-2-amino-3-(3-(3-((5-chloro-3-fluoropyridin-2-yl)oxy)phenyl)-1H-pyrazol-1-yl)propan-1-ol], in test [1], the IC50 was 379 nM.
For the molecule `N[C@H](CO)Cn1cc(-c2ccc(Oc3ncc(Cl)cc3F)cc2)cn1` [Example 25, (S)-2-amino-3-(4-(4-((5-chloro-3-fluoropyridin-2-yl)oxy)phenyl)-1H-pyrazol-1-yl)propan-1-ol], the IC50 at human LTA4H came to 160 nM.
Regarding `N[C@H](CO)Cn1nnc(-c2ccc(Oc3ncc(Cl)cc3F)cc2)n1` [Example 29, (S)-2-Amino-3-(5-(4-((5-chloro-3-fluoropyridin-2-yl)oxy)phenyl)-2H-tetrazol-2-yl)propan-1-ol], in test [1], the IC50 came out at 162 nM.
For `N[C@@H](CO)Cn1nnc(-c2ccc(Oc3ncc(Cl)cc3F)cc2)n1` [Example 30, (R)-2-Amino-3-(5-(4-((5-chloro-3-fluoropyridin-2-yl)oxy)phenyl)-2H-tetrazol-2-yl)propan-1-ol], in test [1], the IC50 stood at 69 nM.
Take `N[C@H](CO)Cn1nnc(-c2ccc(Oc3ccc(Cl)cc3)nc2)n1` [Example 35, (S)-2-Amino-3-(5-(6-(4-chlorophenoxy)pyridin-3-yl)-2H-tetrazol-2-yl)propan-1-01]: the IC50 at human LTA4H is 15.8 nM.
Same read-out and setting: the same measure for `N[C@H](CO)Cn1nnc(-c2ccc(Oc3ncc(-c4ncco4)cc3F)cc2)n1` [Example 38, (2S)-2-amino-3-[5-(4-[[3-fluoro-5-(1,3-oxazol-2-yl)pyridin-2-yl]oxy]phenyl)-2H-1,2,3,4-tetrazol-2-yl]propan-1-ol]: 7.4 nM.

As a reminder, the IC50 is the point on the concentration scale where inhibition reaches its midpoint.
